The values below come from PMC2936338 (Molecular Cancer, 2010).

Each structure is given as a SMILES string. Read-outs that look alike come from different tables or passages of the source.

The test system of test [1] is STAT3 phosphorylation induced by IL-6 in MDA-MB-453 breast cancer cells. Kind of test: IL-6 induction of STAT3 phosphorylation. It is filed as cell-based, human. The conditions noted are these: MDA-MB-453, pretreatment 20 μM, IL-6 50 ng/mL 30 min. The procedure:
After stimulation with IL-6 (50 ng/mL, Sigma) or IFN-γ (50 ng/mL, Sigma) for 30 min, the cells were harvested and analyzed by western blot.

The test system of test [2] is SW480 colorectal cancer cells. Nature of the test: MTT cell viability assay. The conditions noted are these: read-out: IC50 values (μM), cell viability.
Protocol: (§2) Twenty-five μl of 3-(4,5-Dimethylthiazolyl)-2,5-diphenyltetrazolium bromide (MTT, Sigma) was added to each sample and incubated for 3.5 hours. After this, 100 μl of N, N-dimethylformamide (Sigma) solubilization solution was added to each well. […] Half-Maximal inhibitory concentrations (IC50) were determined using Sigma Plot 9.0 software (Systat Software Inc., San Jose, CA).
In test [3] the test system is HCT-116 colorectal cancer cells. Nature of the test: MTT cell viability assay. The conditions noted are these: read-out: IC50 values (μM), cell viability.
Protocol: as §2
Test [4] has as its system U87 glioblastoma cells. Nature of the test: MTT cell viability assay. The conditions noted are these: read-out: IC50 values (μM), cell viability.
Protocol: as §2
Test [5] deals with U251 glioblastoma cells. Kind of test: MTT cell viability assay. The conditions noted are these: read-out: IC50 values (μM), cell viability.
Protocol: as §2
Test [6] has as its system U266 multiple myeloma cells. Nature of the test: MTT cell viability assay. The conditions noted are these: read-out: IC50 values (μM), cell viability.
Protocol: as §2
Test [7] relates to ARH77 multiple myeloma cells. Nature of the test: MTT cell viability assay. The conditions noted are these: read-out: IC50 values (μM), cell viability.
Protocol: as §2
Test [8] has as its system SNU-449 liver cancer cells. Nature of the test: MTT cell viability assay. The conditions noted are these: read-out: IC50 values (μM), cell viability.
Protocol: as §2
The test system of test [9] is SNU-398 liver cancer cells. Kind of test: MTT cell viability assay. The conditions noted are these: read-out: IC50 values (μM), cell viability.
Protocol: as §2
For test [10], the system named is Hep3B liver cancer cells. Nature of the test: MTT cell viability assay. The conditions noted are these: read-out: IC50 values (μM), cell viability.
Protocol: as §2
Test [11] concerns SNU-387 liver cancer cells. Nature of the test: MTT cell viability assay. The conditions noted are these: read-out: IC50 values (μM), cell viability.
Protocol: as §2
Test [12] concerns Cleaved Caspase-3 in HCT-116 cells. Kind of test: Western blot, HCT-116 cells. It is filed as cell-based, human. The conditions noted are these: HCT116, positive controls. As for the experimental part:
(§1) Membranes were analyzed with enhanced chemiluminescence Plus reagents (GE Healthcare) and scanned with a Storm PhosphorImager (Amersham Pharmacia Biotech Inc.).

Test [13] concerns P-STAT3(Y705) in HCT-116 cells. Nature of the test: Western blot, HCT-116 cells. It is filed as cell-based, human. The conditions noted are these: HCT116, positive controls. As for the experimental part:
as §1

Test [14] relates to Cleaved Caspase-3 in U266 cells. Kind of test: Western blot, U266 cells. The conditions noted are these: U266, positive controls. It is filed as cell-based, human. The procedure: as §1
Test [15] relates to P-STAT3(Y705) in U266 cells. Kind of test: Western blot, U266 cells. The conditions noted are these: U266, positive controls. It is filed as cell-based, human. As for the experimental part:
as §1

In the case of `COc1cc(/C=C/C(=O)CC(=O)/C=C/c2ccc(O)c(OC)c2)ccc1O` [Curcumin], the “inhibition of the induction of STAT3 phosphorylation by IL-6” value in [1] was “not”. In addition, the IC50 in test [2] (Homo sapiens, SW480, 72 h) stood at 10.3 µM; in test [3] (Homo sapiens, HCT-116, 72 h), 10.9 µM; in test [4] (Homo sapiens, 72 h) it was 6.91 µM; in test [5] (Homo sapiens, U-251, 72 h), 7.1 µM; in [6] (Homo sapiens, U-266, 72 h), 4.76 µM; in [7] (Homo sapiens, ARH-77, 72 h), 10.1 µM. Besides, the IC50 was 9.88 µM in [8] (Homo sapiens, SNU-449, 72 h); 5.37 µM in test [9] (Homo sapiens, SNU-398, 72 h); 68.1 µM in test [10] (Homo sapiens, Hep3B, 72 h); 25.5 µM in test [11] (Homo sapiens, SNU-387, 72 h).
As for `O=[N+]([O-])c1ccc2c(c1)S(=O)(=O)C=C2` [Stattic], the “apoptosis indicated by cleavage of caspase-3 (in words)” value in test [12] and in test [14] was “induce apoptosis” each time. In addition, the “effect on STAT3 phosphorylation (in words)” value in test [13] and in test [15] was “inhibit STAT3 phosphorylation” throughout. In addition, the IC50 was 0.43 µM in [2] (SW480 (C), MTT, 72 hours); 0.96 µM in [3] (HCT-116 (C), MTT, 72 hours); 0.73 µM in test [4] (U87 (G), MTT, 72 hours); 0.84 µM in test [5] (U251 (G), MTT, 72 hours); 0.99 µM in test [6] (U266 (MM), MTT, 72 hours); 2.57 µM in [7] (ARH77 (MM), MTT, 72 hours). Besides, the IC50 in [8] (SNU-449 (L), MTT, 72 hours) worked out at 2.5 µM; in test [9] (SNU-398 (L), MTT, 72 hours), 3.23 µM; in test [10] (Hep3B (L), MTT, 72 hours), 17.8 µM; in test [11] (SNU-387 (L), MTT, 72 hours), 4.3 µM.
Regarding `Cc1ccc(S(=O)(=O)OCC(=O)Nc2ccc(C(=O)O)c(O)c2)cc1` [S3I-201], the IC50 in test [2] (SW480 (C), MTT, 72 hours) was above 100 µM; in test [3] (HCT-116 (C), MTT, 72 hours), above 100 µM; in [4] (U87 (G), MTT, 72 hours) it was 55.1 µM; in test [5] (U251 (G), MTT, 72 hours), 97.3 µM; in test [6] (U266 (MM), MTT, 72 hours), 8.87 µM; in test [7] (ARH77 (MM), MTT, 72 hours), 35.2 µM. Also, the IC50 in [8] (SNU-449 (L), MTT, 72 hours) was above 100 µM; in [9] (SNU-398 (L), MTT, 72 hours), 16.2 µM; in [10] (Hep3B (L), MTT, 72 hours), above 100 µM; in test [11] (SNU-387 (L), MTT, 72 hours) it was above 100 µM.
For `C[C@H](NC(=O)/C(C#N)=C/c1cccc(Br)n1)c1ccccc1` [WP1066], the “apoptosis indicated by cleavage of caspase-3 (in words)” value in test [12] and in [14] was “induce apoptosis” each time. Also, the “effect on STAT3 phosphorylation (in words)” value in test [13] and in [15] was “inhibit STAT3 phosphorylation” in each case. The IC50 in test [2] (Homo sapiens, SW480, 72 h) came out at 1.98 µM; in [3] (Homo sapiens, HCT-116, 72 h), 1.51 µM; in [4] (Homo sapiens, 72 h), 5.78 µM; in [5] (Homo sapiens, U-251, 72 h), 5.04 µM; in test [6] (Homo sapiens, U-266, 72 h) it was 1.38 µM; in [7] (Homo sapiens, ARH-77, 72 h), 3.43 µM. Further, the IC50 in [8] (Homo sapiens, SNU-449, 72 h) is 3.85 µM; in test [9] (Homo sapiens, SNU-398, 72 h), 4.88 µM; in test [10] (Homo sapiens, Hep3B, 72 h), 10.2 µM; in [11] (Homo sapiens, SNU-387, 72 h) it was 5.17 µM.
For the compound `N#C/C(=C/c1ccc(O)c(O)c1)C(=O)NCc1ccccc1` [AG490], the IC50 in test [2] (SW480 (C), MTT, 72 hours) is 86.8 µM; in test [3] (HCT-116 (C), MTT, 72 hours) it was 50.5 µM; in test [4] (U87 (G), MTT, 72 hours), above 100 µM; in test [5] (U251 (G), MTT, 72 hours), 50.7 µM; in test [6] (U266 (MM), MTT, 72 hours), 9.5 µM; in [7] (ARH77 (MM), MTT, 72 hours) it was 28.2 µM. Moreover, the IC50 in test [8] (SNU-449 (L), MTT, 72 hours) is above 100 µM; in test [9] (SNU-398 (L), MTT, 72 hours), 24.3 µM; in test [10] (Hep3B (L), MTT, 72 hours), above 100 µM; in [11] (SNU-387 (L), MTT, 72 hours), above 100 µM.
